Data taken from patent US20260226061A1, “COMPOSITIONS USEFUL FOR MODULATING SPLICING” (Skyhawk Therapeutics, Inc., priority 2023, published 2026).

Test system: ATXN3 pre-mRNA
Assay: ATXN3 Quantitative Splicing Assay (qPCR, E4E5 primers/probe, transcripts containing exon 4)
Assay type: cell-based
Settings: Human neuroblastoma SK-N-MC cells, 24 h treatment, 30 μM to 0.6 nM; read-out: ATXN3 Potency - Splicing E4E5 IC50
Protocol: Human neuroblastoma SK-N-MC cells were plated in 384-well plates at 20,000 cells/well. Twenty-four hours after plating, cells were treated with compounds for 24 h at appropriate concentrations ranging from 30 μM to 0.6 nM (0.3% DMSO). Treated cells were lysed in 15 μL of lysis buffer, and cDNA was synthesized using the Fast Advanced Cells-to-Ct kit. Two μL of each cDNA was used in qPCR reactions to confirm the exon 4 skipped transcripts of ATXN3. A second set of primers/probe E4E5 was used to detect the transcripts containing exon 4. The third set of primers/probe E8E9 was used to detect total gene level of ATXN3. The qPCR reactions were prepared in 384-well plates in 10 μL volume, using TaqMan™ Fast Advanced Master Mix with primers and probes shown in the table below. Reactions were run in a Quant Studio 6 qPCR instrument with default settings.
The primers and probes are listed below in Table 3.

Row | IC50 | SMILES
1 | 501 to 5000 nM | N[C@H](Cc1cc2c(NCc3ccccc3F)nc(Cl)nn2c1Cl)CC1CC1 [Compound 12, (S)-6-(2-amino-3-cyclopropylpropyl)-2,7-dichloro-N-(2-fluorobenzyl)pyrrolo[2,1-f][1,2,4]triazin-4-amine]
2 | 501 to 5000 nM | N[C@H](Cc1cc2c(NCc3ccccc3)nc(Cl)nn2c1Br)CC1CC1 [Compound 9, (S)-6-(2-amino-3-cyclopropylpropyl)-N-benzyl-7-bromo-2-chloropyrrolo[2,1-f][1,2,4]triazin-4-amine]
3 | 5000 to 10000 nM | Cc1c(C[C@@H](N)CC2CC2)cc2c(NCc3ccccc3F)nc(Cl)nn12 [Compound 14, (S)-6-(2-amino-3-cyclopropylpropyl)-2-chloro-N-(2-fluorobenzyl)-7-methylpyrrolo[2,1-f][1,2,4]triazin-4-amine]
4 | 101 to 500 nM | Cc1c(C[C@@H](N)[C@H](C)F)cc2c(NCc3ccccc3F)nc(Cl)nn12 [Compound 8, 6-((2R,3S)-2-amino-3-fluorobutyl)-2-chloro-N-(2-fluorobenzyl)-7-methylpyrrolo[2,1-f][1,2,4]triazin-4-amine]
5 | 501 to 5000 nM | C[C@H](F)[C@H](N)Cc1cc2c(NCc3ccc(F)cc3)nc(Cl)nn2c1Cl [Compound 2, 6-((2R,3S)-2-amino-3-fluorobutyl)-2,7-dichloro-N-(4-fluorobenzyl)pyrrolo[2,1-f][1,2,4]triazin-4-amine]
6 | 101 to 500 nM | C[C@H](F)[C@H](N)Cc1cc2c(NCc3ccccc3)nc(Cl)nn2c1Cl [Compound 6, 6-((2R,3S)-2-amino-3-fluorobutyl)-N-benzyl-2,7-dichloropyrrolo[2,1-f][1,2,4]triazin-4-amine]
7 | 501 to 5000 nM | Cc1c(C[C@@H](N)[C@H](C)F)cc2c(NCc3ccccc3)nc(Cl)nn12 [Compound 7, 6-((2R,3S)-2-amino-3-fluorobutyl)-N-benzyl-2-chloro-7-methylpyrrolo[2,1-f][1,2,4]triazin-4-amine]
8 | 501 to 5000 nM | N[C@H](Cc1cc2c(NCc3ccccc3)nc(Cl)nn2c1Cl)CC1CC1 [Compound 11, (S)-6-(2-amino-3-cyclopropylpropyl)-N-benzyl-2,7-dichloropyrrolo[2,1-f][1,2,4]triazin-4-amine]
9 | 501 to 5000 nM | C[C@H](F)[C@H](N)Cc1cc2c(NCc3ccc(F)cc3)nc(Cl)nn2c1Br [Compound 1, 6-((2R,3S)-2-amino-3-fluorobutyl)-7-bromo-2-chloro-N-(4-fluorobenzyl)pyrrolo[2,1-f][1,2,4]triazin-4-amine]
10 | 5000 to 10000 nM | Cc1c(C[C@@H](N)CC2CC2)cc2c(NCc3ccccc3)nc(Cl)nn12 [Compound 13, (S)-6-(2-amino-3-cyclopropylpropyl)-N-benzyl-2-chloro-7-methylpyrrolo[2,1-f][1,2,4]triazin-4-amine]
11 | 101 to 500 nM | C[C@H](F)[C@H](N)Cc1cc2c(NCc3ccccc3)nc(Cl)nn2c1Br [Compound 3, 6-((2R,3S)-2-amino-3-fluorobutyl)-N-benzyl-7-bromo-2-chloropyrrolo[2,1-f][1,2,4]triazin-4-amine]
12 | 101 to 500 nM | C[C@H](F)[C@H](N)Cc1cc2c(NCc3ccccc3F)nc(Cl)nn2c1Br [Compound 4, 6-((2R,3S)-2-amino-3-fluorobutyl)-7-bromo-2-chloro-N-(2-fluorobenzyl)pyrrolo[2,1-f][1,2,4]triazin-4-amine]
13 | 101 to 500 nM | C[C@H](F)[C@H](N)Cc1cc2c(NCc3ccccc3F)nc(Cl)nn2c1Cl [Compound 5, 6-((2R,3S)-2-amino-3-fluorobutyl)-2,7-dichloro-N-(2-fluorobenzyl)pyrrolo[2,1-f][1,2,4]triazin-4-amine]
14 | 501 to 5000 nM | N[C@H](Cc1cc2c(NCc3ccccc3F)nc(Cl)nn2c1Br)CC1CC1 [Compound 10, (S)-6-(2-amino-3-cyclopropylpropyl)-7-bromo-2-chloro-N-(2-fluorobenzyl)pyrrolo[2,1-f][1,2,4]triazin-4-amine]
